Values quoted from earlier work as cited in patent US5998440A, “Azetidine, pyrrolidine and piperidine derivatives” (Merck Sharpe & Dohme Ltd., priority 1995, dated 1999).

Conditions: humans, therapeutic doses

CNS(=O)(=O)Cc1ccc2[nH]cc(CCN(C)C)c2c1 [sumatriptan]
adverse cardiovascular events: certain adverse cardiovascular events
